Series [1] is described as follows: Storage stability of L-serine. In kind it is physicochemical. As to conditions: 24 month storage, room temperature (<30° C.), relative humidity <75%.
The conditions of series [2]: up to 30 g/day over a six-month period; 20 ALS patients; cited from earlier work.
For series [3], the system named is human neuroblastoma cells (SH-SY5Y). Kind of series: Glucose synthesis by SH-SY5Y cells given L-serine (Amplex Red Glucose Assay, culture medium). As to conditions: 100, 200 and 500 mM L-serine; 0, 24 and 48 hrs; medium deficient in glucose. In kind it is cell-based. As for the experimental part: Cell Culture: SH-SY5Y human neuroblastoma (PD19, […]) were cultured in 150 cm^2 flasks in Dulbecco's Modified Eagle's Medium/Nutrient F-12 Ham (Sigma-Aldrich, Cat. No. D8437) containing 10% fetal bovine serum (FBS), 4 mM L-glutamine, 100 U/mL penicillin, and 100 μg/mL streptomycin at 37° C. (Complete Medium) in a humidified atmosphere of 5% CO2 and 95% air. At between 70 and 90% confluence, the cells were trypsinized with 0.5% Trypsin-EDTA (Thermo Fisher, Cat. No. 15400054) and then 2.5×10^5 cells/well plated in twenty-four-well plates and allowed to adhere overnight (PD22). The following day, the cell culture medium was aspirated, and the cells were washed three times in warm […] Hanks buffered salt solution (HBSS). […] Glucose concentrations were measured using the Amplex® Red Glucose/Glucose Oxidase Assay Kit (Invitrogen). […] Fluorescence was read at excitation 540 nm and emission […] in SoftMax Pro version 7.0.2 on a Molecular Devices Flexstation 3. Glucose concentrations in the samples were calculated from the standard curve. […] Human neuroblastoma cells were incubated in medium deficient in glucose and L-serine, but supplemented with increasing concentrations of L-[…], 200 and 500 mM) for 0, 24 and 48 hrs, then glucose concentrations in the culture medium measured using the Amplex® Red Glucose Assay (Invitrogen).

A short description of series [4]: Glucose in cerebral spinal fluid of vervets fed L-serine. The format is in vivo, vervets (Chlorocebus pygerythrus). How it is done:
[…]. These were compared to four control vervets who were fed daily control doses of 651 mg/day of rice powder for 42 days.
Cerebral spinal fluid samples were taken during the experiment. The cerebral spinal fluid samples from vervets fed L-serine were compared to cerebral spinal fluid samples from control vervets at 42 days.
Frozen cerebral spinal fluid (CSF) was prepared using equal volumes of CSF and 20% w/v TCA. The combined volume was sonicated (Fisher Scientific Sonic Dismembrator, Model 100) on ice at 2 watts (10 s×3) and left to precipitate at room temperature for 30 minutes. The sample was then centrifuged (Labnet Spectrafuge 16M) at 14,000 g for 5 min. […]
CSF extracts were analyzed on a TSQ Quantiva (Thermo Scientific) triple quadrupole mass spectrometer with an Ultra High Pressure Liquid Chromatography (Waters Acquity-UHPLC) system equipped with a Binary Solvent Manager, Sample Manager, and an Acquity UPLC BEH Amide column (#186004801, 100×2.1 mm, 1.7 μm) at 50° C. […]
The mass spectrometer was operated with a heated electrospray ionization (H-ESI) probe and sheath gas pressure set to 40 (Arb), aux gas set to 2 (Arb), and sweep gas set to 1 (Arb). Samples were analyzed in negative ion mode with a vaporizer temperature of 350° C., capillary temperature of 130° C., and spray voltage 2800v. […]

The nature of series [5]: Randomized, placebo-controlled double-blinded study of cognitive ability in healthy post-menopausal women (Rey Auditory Verbal Learning Test). The format is in vivo, human. As to conditions: 15 g/day for 60 days. The source says: This Example describes a nutritional experiment conducted on post-menopausal women. The study was designed to determine if dietary supplementation with L-[…] grams/day) improves cognitive ability in healthy women when administered over a 60-day period. Forty-eight women ages 55 years, who had not been diagnosed with mild cognitive impairment, probable dementia, or Alzheimer's disease participated as volunteers in this randomized, placebo-controlled double-blinded study. Forty-three women completed the study. Cognitive abilities of each participant were assessed in several different cognitive domains by using the NIH toolbox (Gershon et al, 2013) on an I-Pad, founded on earlier test procedures developed by Atkinson and […] (1968). Cognitive tests included the Rey Auditory Verbal Learning Test which broadly assesses short-term auditory and verbal learning (King et al. 1998). For example, in one test participants were presented 15 unrelated words and asked to repeat them again after 30 minutes. The cognitive assessment was administered to participants at the beginning and the end of the sixty-day study period. The assessment procedure lasted 45 minutes for each individual. L-serine gummies, each at 2.2 grams total weight, and each containing 1.0 grams of L-serine were manufactured in a cGMP FDA-compliant facility by […]). Placebo gummies were manufactured in a similar manner. […] The gummies were placed in sealed foil packets, each packet containing 15 gummies. Microbiological analysis indicated the gummies to be free of bacterial contamination. The materials used for packaging were manufactured by ESP Packaging LLC (Costa Mesa, CA). Each individual foil packet was labeled with a lot number containing the Julian code date. […] The differences between the beginning and end score for each participant in the L-serine treatment and placebo treatment groups were evaluated using a Wilcoxon-Mann-Whitney test with p<0.05 as the significance level. […]

Series [6] is described as follows: Case study of a person with GLUT1 deficiency. In kind it is in vivo, human. The conditions noted are these: 30 grams per day oral, single patient. The text has this:
Evidence for the efficacy of L-serine therapy for glucose deficiency syndrome is supported by a case-study of a person (“the patient”) who suffered ataxia, developmental impairment, reduced social interaction, and fine motor skill deficits as a result of their GLUT1 deficiency. In subjects suffering from glucose deficiency syndrome, there is insufficient glucose transported across the brain to allow proper functioning of brain cells. Since L-serine is transported through a different mechanism across the blood brain barrier, it is possible to increase intracranial glucose concentrations through administration of high doses of L-serine. The patient was administered 30 grams of L-serine per day by oral administration.

For the compound `N[C@@H](CO)C(=O)O` [L-serine], in series [1], the “changes in optical rotation or purity on storage” value is “No significant changes” and the stability on storage result is “extraordinarily stable”. In addition, the safety entry in series [2] is “safe”. For the same compound, the “glucose concentration in the culture medium compared to Control (0 mM L-serine)” value in series [3] is “No significant increase”. Moreover, in series [4] (651 mg/day oral for 42 days, significant at p<0.005), the “increase of glucose levels versus control vervets” value is recorded as “great than doubling”. Further, the “median level of glucose in CSF” value in series [4] (vervets fed 651 mg/day L-serine for 42 days, CSF at 42 days, control 24 mg/100 ml, p<0.005) is reported as 58 mg/100 ml. Also, the delayed list recall in series [5] (did not achieve statistical significance) is given as “trend towards improvement”. For the same compound, in series [5] (final minus beginning score, placebo 4.0), the “mean improvement on the Rey Auditory Verbal Learning Test” value was found to be 7.9. Also, the “improvement in learning ability (Rey Auditory Verbal Learning Test) compared to the placebo group” value in series [5] (p<0.01) turned out to be 98%. For the same compound, in series [6], the “fine motor skills, including handwriting” value was “improved fine motor skills” and the social interaction result is reported as “improved social interaction”. Also, the “patient's condition (ability to ride a bicycle and carry cargo)” value in series [6] (within several weeks) is recorded as “rapid improvement”.

The record behind these values is patent publication US12691087B2, “Method of enhancing glucose levels in the central nervous system” (THE INSTITUTE FOR ETHNOMEDICINE, priority 2018, dated 2026).
